Test results: patent publication US10980889B1 (Revolution Medicines, Inc., priority 2018, dated 2021)

Experiments:
[1] = tested on: P-Akt (S473); test: Cell based AlphaLISA assay, inhibition of P-Akt (S473) in MDA-MB-468 cells (mTORC2 substrate); settings: Homo sapiens, 4 h, AlphaLisa, two to four hours at 37° C., read-out: pIC50 for Inhibition of mTORC1 and mTORC2 Substrate Phosphorylation p-AKT1/2/3-(S473) (converted)
How it was run: (§1)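 In MDA-MB-468 cells, phosphorylation of 4EBP1 (Thr37/46), P70S6K (Thr389) and AKT (Ser473) was measured after incubation with inhibitor by AlphaLISA SureFire Ultra on cell lysates, in duplicate. IC50 values came from control-normalized concentration-response regression.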

[2] = tested on: P-4E-BP1 (T37/46); test: Cell based AlphaLISA assay, inhibition of P-4E-BP1 (T37/46) in MDA-MB-468 cells (mTORC1 substrate); settings: Homo sapiens, 4 h, AlphaLisa, two to four hours at 37° C., read-out: pIC50 for Inhibition of mTORC1 and mTORC2 Substrate Phosphorylation P-4E-BP1-(T37/46) (converted)
How it was run: as §1

[3] = tested on: P-P70S6K (T389); test: Cell based AlphaLISA assay, inhibition of P-P70S6K (T389) in MDA-MB-468 cells (mTORC1 substrate); settings: Homo sapiens, 4 h, AlphaLisa, two to four hours at 37° C., read-out: pIC50 for Inhibition of mTORC1 and mTORC2 Substrate Phosphorylation p-P70S6K-(T389) (converted)
How it was run: as §1

| SMILES | IC50 [1] [nM] | IC50 [2] [nM] | IC50 [3] [nM] |
| --- | --- | --- | --- |
| CO[C@H]1C[C@@H]2CC[C@@H](C)[C@@](O)(O2)C(=O)C(=O)N2CCCC[C@H]2C(=O)O[C@H]([C@H](C)C[C@@H]2CC[C@@H](OC(=O)N3CCc4nc(N5CCN(C(=O)CCOCCN6CCN(c7ncc(C(=O)N8CCc9cc(Cn%10nc(-c%11ccc%12oc(N)nc%12c%11)c%11c(N)ncnc%11%10)ccc9C8)cn7)CC6)CC5)ncc4C3)[C@H](OC)C2)C[C@@H](OC)[C@H](C)/C=C(\C)[C@@H](O)[C@@H](OC)C(=O)[C@H](C)C[C@H](C)/C=C/C=C/C=C/1C [Example 117] | 3.16 to 31.6 | < 3.16 | < 1 |
| CO[C@H]1C[C@@H]2CC[C@@H](C)[C@@](O)(O2)C(=O)C(=O)N2CCCC[C@H]2C(=O)O[C@H]([C@H](C)C[C@@H]2CC[C@@H](OC(=O)NCc3cnc(N4CCN(C(=O)CCOCCN5CCN(c6ncc(C(=O)N7CCc8cc(Cn9nc(-c%10ccc%11oc(N)nc%11c%10)c%10c(N)ncnc%109)ccc8C7)cn6)CC5)CC4)nc3)[C@H](OC)C2)CC[C@H](C)/C=C(\C)[C@@H](O)[C@@H](OC)C(=O)[C@H](C)C[C@H](C)/C=C/C=C/C=C/1C [Example 118] | 3.16 to 31.6 | < 3.16 | < 1 |
| CO[C@H]1C[C@@H]2CC[C@@H](C)[C@@](O)(O2)C(=O)C(=O)N2CCCC[C@H]2C(=O)O[C@H]([C@H](C)C[C@@H]2CC[C@@H](OC(=S)NCc3cnc(N4CCN(C(=O)CCOCCN5CCN(c6ncc(C(=O)N7CCc8cc(Cn9nc(-c%10ccc%11oc(N)nc%11c%10)c%10c(N)ncnc%109)ccc8C7)cn6)CC5)CC4)nc3)[C@H](OC)C2)CC(=O)[C@H](C)/C=C(\C)[C@@H](O)[C@@H](OC)C(=O)[C@H](C)C[C@H](C)/C=C/C=C/C=C/1C [Example 119] | 3.16 to 31.6 | < 3.16 | < 1 |
| CO[C@H]1C[C@@H]2CC[C@@H](C)[C@@](O)(O2)C(=O)C(=O)N2CCCC[C@H]2C(=O)O[C@H]([C@H](C)C[C@@H]2CC[C@@H](OC(=S)NCc3cnc(N4CCN(C(=O)CCOCCN5CCN(c6ncc(C(=O)N7CCc8cc(Cn9nc(-c%10ccc%11oc(N)nc%11c%10)c%10c(N)ncnc%109)ccc8C7)cn6)CC5)CC4)nc3)[C@H](OC)C2)C[C@@H](OC)[C@H](C)/C=C(\C)[C@@H](O)[C@@H](OC)C(=O)[C@H](C)C[C@H](C)/C=C/C=C/C=C/1C [Example 121] | > 1000 | < 3.16 | < 1 |
| CO[C@H]1C[C@@H]2CC[C@@H](C)[C@@](O)(O2)C(=O)C(=O)N2CCCC[C@H]2C(=O)O[C@H]([C@H](C)C[C@@H]2CC[C@@H](OC(=O)NCc3cnc(N4CCN(C(=O)CCOCCN5CCN(c6ncc(C(=O)NCCS(=O)(=O)c7ccc(C(=O)N8CCOc9ccc(-c%10ccc(N)nc%10)cc9C8)c(C)c7F)cn6)CC5)CC4)nc3)[C@H](OC)C2)C[C@@H](O)[C@H](C)/C=C(\C)[C@@H](O)[C@@H](OC)C(=O)[C@H](C)C[C@H](C)/C=C/C=C/C=C/1C [Example 122] | 3.16 to 31.6 | < 3.16 | < 1 |
| CO[C@H]1C[C@@H]2CC[C@@H](C)[C@@](O)(O2)C(=O)C(=O)N2CCCC[C@H]2C(=O)O[C@H]([C@H](C)C[C@@H]2CC[C@@H](OC(=O)NCc3cnc(N4CCN(C(=O)CCOCCN5CCN(c6ncc(C(=O)NCCS(=O)(=O)c7ccc(C(=O)N8CCOc9ccc(-c%10ccc(N)nc%10)cc9C8)c(C)c7F)cn6)CC5)CC4)nc3)[C@H](OC)C2)C[C@@H](OC)[C@H](C)/C=C(\C)[C@@H](O)[C@@H](OC)C(=O)[C@H](C)C[C@H](C)/C=C/C=C/C=C/1C [Example 123] | 31.6 to 1000 | < 3.16 | < 1 |
